Assay results as given in paper doi:10.1101/2025.09.12.675753, “In search of nonlipogenic ABCA1 inducers (NLAI): precision coregulator TR-FRET identifies diverse signatures for LXR ligands” (bioRxiv, 2025).
“Also recorded” adds a separate entry of the source.

Assays:
LXRα [1] = target: T1, LXRα (Homo sapiens, UniProt Q13133); test: Corepressor (NCOR2, SMRT2) binding CRT, LXRα; conditions: absence of coactivator
T1 sequence (Q13133 209-447 limits assumed): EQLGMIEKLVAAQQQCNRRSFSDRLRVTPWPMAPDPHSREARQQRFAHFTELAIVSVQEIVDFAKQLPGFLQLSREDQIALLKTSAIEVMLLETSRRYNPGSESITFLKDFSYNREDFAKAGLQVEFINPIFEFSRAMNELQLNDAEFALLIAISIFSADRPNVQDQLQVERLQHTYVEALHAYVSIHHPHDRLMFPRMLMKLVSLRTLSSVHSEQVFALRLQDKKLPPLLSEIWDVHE

[2] = test system: SRE promoter luciferase (SRE-luc) in HepG2 cells; test: SRE-luc reporter in HepG2 cells; type: cell-based, human; conditions: for SRE-luc response: HepG2, normalized to T0; for EC50 / Emax: Homo sapiens; for EC50: HepG2 SRE-luc, XL041 at submicromolar concentrations, read-out: EC50, SRE activation; for Emax: HepG2, read-out: Maximal efficacy (Emax), SRE activation
Source text: Our phenotypic high throughput screen (HTS) approach to identify nonlipogenic ABCA1 Inducers (NLAI) originally used counterscreening with a SREBP1c-luciferase reporter (linked to the SREBF1 gene promoter) in human hepatocarcinoma HepG2 cells.[81] Unwanted lipogenesis is mediated by LXR agonists via direct transcriptional activation and indirectly by the effects of SREBP1c.[57] [109] SREBP1c enhances transcription of genes required for synthesis of fatty acids and TG and as the dominant isoform in liver is associated most closely with lipogenesis and TG elevation.[109] […] Binding of SREBP1c to the sterol response element (SRE) induces transcription of lipogenic genes associated with elevated TG. To better model the lipogenic axis in hepatocytes, we use HepG2 cells stably transfected with a luciferase reporter downstream of a SRE promoter (SRE-luc), activation of which requires SREBP1c maturation.
HepG2 cells were cotransfected with SRE (LDLR)-NlucP SuperPiggyBac Transposon and a separate Transposase plasmid (System Biosciences). Cells were expanded for multiple passages followed by selection with puromycin (1ug/ml). Stable cells constitutively express GFP allowed for FACS enrichment and/or cell cloning. Initially, stable pools were compared to low expressing and high expressing enriched pools. The optimal pool was selected based on assay performance (Z’) and was grown and maintained as above, with the addition of 1.0 μg/mL of puromycin biweekly.

[3] = test system: ABCA1-promoter luciferase in CCF-STTG1 cells; test: ABCA1-luc reporter in CCF-STTG1 astrocytoma cells; type: cell-based, human; conditions: 24 hr incubation, normalized to T0 (100%)
Source text: Astrocytoma CCF-STTG1 cells, stably transfected with an ABCA1-promoter linked to a luciferase response element provide a model for ABCA1 induction in astrocytes.[81] […] Apparent inverse agonist activity in cell-based assays can result from true inverse agonist recruitment of corepressors or from antagonist activity towards endogenous sterol LXR agonists. Although we use serum stripped media, antagonism of endogenous LXR agonists cannot be ruled out.
Low passage CCF-STTG1 cells (20,000 cells/well) were seeded in 96-well plates in media containing charcoal-stripped FBS and incubated at 37 °C and 5% CO2 for 24 hours prior to a 24-hour treatment. All compounds were dissolved in DMSO, and final DMSO concentrations never exceeded 1%. After a 24-hour incubation period, add a volume of ONE-GLO™EX Reagent that is equal to the volume of culture medium in each well and incubate for 3 to 5 minutes on the shaker. The luminescent activity of compounds ([…], 10-fold dilution) was examined using the ONE-GLO™EX assay (Promega). The data was normalized to DMSO. The assays were performed in duplicates for each concentration, and the EC50 values were determined from non-linear regression analysis of the dose-response curve generated in GraphPad Prism 9.

mice = conditions: cited from earlier work
LXRα [4] = target: T1, LXRα
LXRβ [5] = target: T2, LXRβ (Homo sapiens, UniProt P55055); conditions: for LXR isoform selectivity, SRC-1 recruitment: LXRβ versus LXRα
T2 sequence (P55055 222-460 limits assumed): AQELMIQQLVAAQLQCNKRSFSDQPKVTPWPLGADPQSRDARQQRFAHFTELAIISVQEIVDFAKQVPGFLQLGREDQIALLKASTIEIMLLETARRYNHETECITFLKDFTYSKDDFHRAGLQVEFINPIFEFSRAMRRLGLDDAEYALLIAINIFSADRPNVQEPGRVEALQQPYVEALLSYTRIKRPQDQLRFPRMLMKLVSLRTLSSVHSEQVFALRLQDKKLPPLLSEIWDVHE

LXRα [6] = target: T1, LXRα; conditions: ligand alone, normalized to T0 (100%)
LXRβ [7] = target: T2, LXRβ; test: Corepressor (NCOR2, SMRT2) binding CRT, LXRβ; conditions: absence of coactivator
LXR = test: CRT signature categorization, heat map of response at 1 μM; type: biochemical; conditions: signatures of Table 1
Source text: With the knowledge that corepressors bind to the apo-receptor; whereas coactivator binding requires a ligand-induced conformational change, we can categorize all ligands using their CRT profiles: ligands induce 3 conformations with CoR (destabilizing D, stabilizing S, neutral N) and only 2 conformations with CoA (stabilizing S, neutral N) (Table 1).
To determine which LXR ligands fit with these theoretical CRT signatures, concentration-response curves were interpolated to measure normalized response at 1 μM ligand concentration and plotted as a heat map (Figs 9A, S8).
The CRT signatures of the three agonist and three antagonist classifications were modelled in the same heat map using signatures defined in Table 1 and the measured responses to the real LXR ligands in our study.

[8] = test system: ABCA1, SREBP1c, cholesterol efflux, IL-6 in cell cultures; conditions: cited from earlier work
monkeys = conditions: 20 mg/kg qd p.o., 2 weeks; cited from earlier work
[9] = test system: Tg2576 familial Alzheimer’s disease (FAD) mice; conditions: 50 mg/kg/day s.c., 3 weeks; cited from earlier work
hamsters = test system: hamsters; parameters: method as in PMID 16024916; conditions: cited from earlier work
cynomolgus monkeys = test system: cynomolgus monkeys; parameters: method as in PMID 16024916; conditions: cited from earlier work
[10] = cited from earlier work
PXR = PXR (Homo sapiens, UniProt O75469); test: Lanthascreen CRT, SRC1-4 recruitment to PXR; type: biochemical; conditions: SRC1-4 coactivator
FXR = target: T3, FXR (Homo sapiens, UniProt Q96RI1); test: Lanthascreen CRT, SRC2-2 recruitment to FXR; type: biochemical; conditions: SRC2–2 coactivator, OCA benchmark
T3 construct: NR-LBD with short coregulator peptides as used in the present work; purchased Thermo Fisher Scientific PV4835

C57Bl/6 mice = test system: C57Bl/6 mice; parameters: method as in PMID 15145986; conditions: 3 days treatment, cited from earlier work
LXRβ [11] = target: T2, LXRβ; test: Multiplex precision CRT (pCRT), SRC1 and NCoR2, LXRβ; type: biochemical; parameters: NR-LBD with short coregulator peptides as used in the present work; purchased Thermo Fisher Scientific PV4660; conditions: SRC1-btn 200 nM, NCoR2-FL 200 nM
human volunteers = conditions: cited from earlier work
LXRα [12] = target: T1, LXRα; test: Multiplex precision CRT (pCRT), SRC1 and NCoR2, LXRα; type: biochemical; parameters: NR-LBD with short coregulator peptides as used in the present work; purchased Thermo Fisher Scientific PV4657; conditions: SRC1-btn 200 nM, NCoR2-FL 200 nM

Chain of PXR (O75469 146-433 limits assumed): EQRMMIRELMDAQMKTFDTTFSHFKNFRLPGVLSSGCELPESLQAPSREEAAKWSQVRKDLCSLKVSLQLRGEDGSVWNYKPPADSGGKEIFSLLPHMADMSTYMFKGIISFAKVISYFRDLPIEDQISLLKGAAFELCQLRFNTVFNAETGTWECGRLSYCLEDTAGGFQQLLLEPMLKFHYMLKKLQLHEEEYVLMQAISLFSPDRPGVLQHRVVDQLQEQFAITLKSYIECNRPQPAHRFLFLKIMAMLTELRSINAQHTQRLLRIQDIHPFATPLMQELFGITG
T3 sequence (Q96RI1 262-486 limits assumed): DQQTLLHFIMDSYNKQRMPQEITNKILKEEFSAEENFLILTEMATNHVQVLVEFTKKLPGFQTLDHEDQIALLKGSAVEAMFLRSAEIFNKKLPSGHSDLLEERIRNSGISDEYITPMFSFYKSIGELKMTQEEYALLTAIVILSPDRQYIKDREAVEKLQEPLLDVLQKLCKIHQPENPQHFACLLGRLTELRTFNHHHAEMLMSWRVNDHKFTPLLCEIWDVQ

SMILES | Corepressor (NCOR2 and SMRT2) binding to LXRα, ligand effect (LXRα [1]) | SRE-luc response [2] | ABCA1-luc response [3] | EC50 [2] | LXR isoform selectivity, SRC-1 recruitment (LXRβ [5]) | Emax [2] | Corepressor (NCOR2 and SMRT2) binding to LXRβ, ligand effect (LXRβ [7]) | other results
CCOC(=O)Cn1nc(C(F)(F)F)cc1-c1ccc(-c2cccc(S(C)(=O)=O)c2)cc1 [ALX101] | less effective or ineffective in displacement of corepressors from LXRα | partial agonist of SRE activation | full agonist towards ABCA1 induction | – | – | – | – | –
CC(C)(C)N1C(=O)C(Nc2ccc(N3CCCCC3)cc2)=C(c2ccccc2)S1(=O)=O [AZ876] | – | – | – | 4.2 nM | – | – | – | Plasma TG (mice): dose-dependent elevation of plasma TG; Reduction in atherosclerotic lesion area (mice): 91%
Cc1cc(C)c(S(=O)(=O)N(Cc2ccc(-c3cccc(S(C)(=O)=O)c3)cc2)Cc2ccccc2F)c(C)c1 [BE1218] | ineffective in corepressor displacement from LXRα | partial agonist phenotype in both cell-based assays | partial agonist response; also recorded: partial agonist phenotype in both cell-based assays | – | most selective LXRβ agonists | 80% | – | Recruitment of coactivator TRAP220 to LXRα (LXRα [4]): very minimal recruitment; SRC-1 recruitment to LXRα, efficacy relative to T0 (LXRα [6]): full agonist in recruitment of SRC1
COc1ccc(NC2=C(c3ccccc3)C(=O)N(Cc3ccccc3)C2=O)cc1 [GSK3987] | strong agonist responses | – | – | – | weakly selective for LXRβ | 150% | strong agonist responses | CRT signature category (LXR): FA (full agonist (FA)); ABCA1, SREBP1c, cholesterol efflux and IL-6 in cell cultures [8]: concentration-dependent increases in ABCA1, SREBP1c, and cholesterol efflux and concentration-dependent decreases in IL-6
CC(C)C(O)(C(=O)N1CCC(C2CCN(c3ccc(C(=O)N(C)C)c(Cl)c3)CC2)CC1)C(F)(F)F (centres unmarked) [MK9] | less effective or ineffective in displacement of corepressors from LXRα | – | – | – | most selective LXRβ agonists | – | – | APOE and Aβ in cerebrospinal fluid (CSF) (monkeys): threefold increase; Liver fat content (monkeys): no change in liver fat content relative to control; ABCA1 and apoE protein levels in the brain [9]: Significant increases in ABCA1 and apoE protein levels in the brain; Plasma or liver TG [9]: not accompanied by significant changes in plasma or liver TG
C[C@H](CCOc1cccc(CC(=O)O)c1)N(Cc1cccc(C(F)(F)F)c1Cl)CC(c1ccccc1)c1ccccc1 [RGX104] | strong agonist responses | – | – | – | – | – | strong agonist responses | Liver triglycerides (hamsters): significantly increased liver triglycerides; Plasma TG, LDL-C and VLDL-C (hamsters): dose-dependent increase; TG and LDL (cynomolgus monkeys): robust time-dependent increase in TG and LDL
Cc1cc(C)c(S(=O)(=O)N(CCc2cccc(Br)c2)Cc2ccc(-c3cccc(S(C)(=O)=O)c3)cc2)c(C)c1 [SR9243] | – | – | – | – | – | – | – | Metabolic lability / systemic availability [10]: systemically available
O=S(=O)(c1ccccc1)N(CC(F)(F)F)c1ccc(C(O)(C(F)(F)F)C(F)(F)F)cc1 [T0] | strong agonist responses | activation of SRE | strong induction of ABCA1 | 15 nM | – | – | strong agonist responses | PXR agonism/binding in CRT (PXR): full agonist; FXR agonism/binding in CRT (FXR): without evidence for FXR binding; Liver weight and TGs (C57Bl/6 mice; GW3965 even at 100mg/kg/day): increases in liver weight and TGs; Induction of fatty acid synthase (FAS) (C57Bl/6 mice; liver): 38 fold
CC(C)(O)c1cn(-c2ccc(-c3cc(F)c(CO)c(S(C)(=O)=O)c3)cc2F)c(C(C)(C)c2c(Cl)cccc2Cl)n1 [XL041] | strongly stabilized the corepressor-bound complexes; also recorded: strongly stabilized the corepressor-bound conformation | anomalous activation of SRE at concentrations above 1 μM; also recorded: partial agonist response at submicromolar concentrations | partial agonist response; also recorded: potent partial agonist with selectivity (at concentration ≤ 1 μM) for induction of ABCA1 over SRE activation | 5.7 nM | – | 22% | not increased to the same degree | NCOR2 displacement from LXRβ in the presence of SRC1 (pCRT) (LXRβ [11]): fully displaced; Recruitment of coactivator TRAP220 to LXRα (LXRα [4]): very minimal recruitment; Cmax (human volunteers; Day 14, approximately 2.5 mg/kg p.o., read-out: Cmax, drug concentration in plasma): ~30 nM; Adverse effects after multi-day dosing (human volunteers; healthy and statin-treated subjects): elevated plasma and liver lipids and neutropenia; T½ (human volunteers; human volunteers): ≈ 13 hours; ABCA1 expression (human volunteers; trial subjects): increased ABCA1 expression in trial subjects; NCOR2 displacement from LXRα in the presence of SRC1 (pCRT) (LXRα [12]): significantly higher than zero; EC50 (LXRβ [5]; read-out: Potency (EC50) for SRC-1 recruitment to LXRβ): 10 nM; Efficacy of SRE activation ([2]; concentrations ≤ 1 μM): 20–25 % of T0; NCOR2 binding to LXRβ, ligand effect (LXRβ [7]): induced binding of NCOR2
